# Data from the supplement of paper PMC10307832.
# Legend:
# Assay in all cases: relative viability (nuclei count vs DMSO), 5 days (fraction); higher = more cells survive
# [1] = compound: CN(C)CC1=CC(=CC=C1)N=C(C2=CC=CC=C2)C3=C(NC4=C3C=CC(=C4)C(=O)N(C)C)O + O=C(c1cc(Cc2n[nH]c(=O)c3ccccc23)ccc1F)N1CCN(C(=O)C2CC2)CC1 [Olaparib] (partner 8 µM)
# In short: (§1)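 Dosing by pin tool came one day after lung cancer cell lines were seeded in 1536-well plates, using either one drug or a fixed anchor-drug dose plus five library-drug doses (not always all listed) in √10 steps. After 5 days, nuclei were counted on 4× images. Relative viability is treated-well nuclei count divided by vehicle-well nuclei count, and values are medians of duplicate plates.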
# [2] = compound: CN(C)CC1=CC(=CC=C1)N=C(C2=CC=CC=C2)C3=C(NC4=C3C=CC(=C4)C(=O)N(C)C)O + Nc1nc2[nH]cc(CCc3ccc(C(=O)N[C@@H](CCC(=O)O)C(=O)O)cc3)c2c(=O)[nH]1 [Pemetrexed] (partner 0.2 µM)
# In short: as §1
# [3] = compound: CN(C)CC1=CC(=CC=C1)N=C(C2=CC=CC=C2)C3=C(NC4=C3C=CC(=C4)C(=O)N(C)C)O + CC(C)C[C@H](NC(=O)[C@H](Cc1ccccc1)NC(=O)c1cnccn1)B(O)O [Bortezomib] (partner 0.002 µM)
# In short: as §1
# [4] = compound: CN(C)CC1=CC(=CC=C1)N=C(C2=CC=CC=C2)C3=C(NC4=C3C=CC(=C4)C(=O)N(C)C)O + Cc1nc(NC(=O)N2CCC[C@H]2C(N)=O)sc1-c1ccnc(C(C)(C)C(F)(F)F)c1 [Alpelisib] (partner 2 µM)
# In short: as §1
Cell Line,relative viability ([1]; first compound 0.08 µM),relative viability ([1]; first compound 0.253 µM),relative viability ([1]; first compound 0.8 µM),relative viability ([1]; first compound 2.53 µM),relative viability ([1]; first compound 8 µM),relative viability ([2]; first compound 0.08 µM),relative viability ([2]; first compound 0.253 µM),relative viability ([2]; first compound 0.8 µM),relative viability ([2]; first compound 2.53 µM),relative viability ([2]; first compound 8 µM),relative viability ([3]; first compound 0.08 µM),relative viability ([3]; first compound 0.253 µM),relative viability ([3]; first compound 0.8 µM),relative viability ([3]; first compound 2.53 µM),relative viability ([3]; first compound 8 µM),relative viability ([4]; first compound 0.08 µM),relative viability ([4]; first compound 0.253 µM),relative viability ([4]; first compound 0.8 µM),relative viability ([4]; first compound 2.53 µM),relative viability ([4]; first compound 8 µM)
201T,0.829,0.801,0.839,0.817,0.721,0.355,0.382,0.347,0.331,0.315,1.13,1.15,1.08,1.06,0.994,1,0.968,0.977,0.962,0.955
A549,0.294,0.372,0.401,0.148,0.406,–,–,–,–,–,–,–,–,–,–,0.77,0.921,0.883,0.711,0.592
A-427,0.716,0.711,0.754,0.707,0.711,1.06,0.993,1,0.955,0.926,0.986,0.941,1.02,0.935,0.98,1.04,1.04,1.09,1.03,1.07
ABC-1,0.91,0.907,0.952,0.635,0.756,–,–,–,–,–,0.324,0.312,0.264,0.274,0.316,1.14,1.03,0.957,0.896,1.09
BEN,1.09,0.867,1.1,0.877,0.927,0.778,0.79,0.707,0.78,0.795,0.951,0.679,0.794,0.876,0.717,1.02,0.947,1.08,0.928,0.82
CAL-12T,0.704,0.67,0.81,0.654,0.829,1.17,1.22,1.14,1.34,1.25,–,1.02,1.03,–,1.08,1.19,1.29,1.18,1.11,1.15
COR-L23,0.36,0.308,0.397,0.314,0.327,0.205,0.2,0.193,0.196,0.19,0.99,1.06,0.991,0.958,0.904,0.796,0.757,0.818,0.632,0.575
COR-L 105,0.909,0.732,0.675,0.612,0.75,1.21,1.01,0.895,0.892,0.939,0.767,0.889,0.586,0.761,0.753,0.844,0.892,1.01,0.813,0.808
Calu-6,0.558,0.549,0.571,0.565,0.63,–,–,–,–,–,1.02,1.06,1.05,1.13,1.06,1.05,1.11,1.06,0.971,0.93
ChaGo-K-1,0.386,0.458,0.41,0.355,0.415,0.251,0.267,0.259,0.258,0.265,0.986,1.1,1.03,–,1.12,–,–,–,–,–
EBC-1,0.785,0.732,0.772,0.744,0.845,–,–,–,–,–,0.551,0.632,0.605,0.737,0.598,0.958,0.891,1.06,0.917,0.816
EKVX,0.83,0.781,–,0.837,0.862,0.41,0.362,–,0.396,0.418,1,1,1.01,0.962,1.06,0.878,0.847,0.843,0.886,0.879
EMC-BAC-2,0.507,0.526,0.543,0.449,0.507,0.437,0.445,0.582,0.435,0.508,1.09,1.08,1.09,1.05,1.01,0.763,0.743,0.71,0.738,0.67
EPLC-272H,0.696,0.888,0.689,0.664,0.583,0.355,0.345,0.284,0.314,0.398,0.949,1.16,0.903,1.02,1.15,0.935,0.872,0.825,1.06,0.856
H3255,0.577,0.57,0.598,0.574,0.608,0.592,0.52,0.543,0.592,0.592,0.779,0.893,0.752,0.822,0.94,0.781,0.754,0.635,0.635,0.84
